This is an account of results in the Kinase Knowledgebase extract (Sharma et al. 2016).

SMILES strings stand for the structures. Bounds are passed on as bounds.

Test [1] has as its target MAPK14 (human) (UniProt Q16539). As to the kind of experiment: Inhibition of MAPK14 Kinase Activity.
The test system of test [2] is MAPK14 (Balb/c mice). Briefly: Inhibition of LPS Induced TNF-alpha Release in Mice.
Test [3] deals with EGFR (UniProt P00533). The settings on record: concentration not given here.
Sequence of EGFR (P00533 whole entry, looked up): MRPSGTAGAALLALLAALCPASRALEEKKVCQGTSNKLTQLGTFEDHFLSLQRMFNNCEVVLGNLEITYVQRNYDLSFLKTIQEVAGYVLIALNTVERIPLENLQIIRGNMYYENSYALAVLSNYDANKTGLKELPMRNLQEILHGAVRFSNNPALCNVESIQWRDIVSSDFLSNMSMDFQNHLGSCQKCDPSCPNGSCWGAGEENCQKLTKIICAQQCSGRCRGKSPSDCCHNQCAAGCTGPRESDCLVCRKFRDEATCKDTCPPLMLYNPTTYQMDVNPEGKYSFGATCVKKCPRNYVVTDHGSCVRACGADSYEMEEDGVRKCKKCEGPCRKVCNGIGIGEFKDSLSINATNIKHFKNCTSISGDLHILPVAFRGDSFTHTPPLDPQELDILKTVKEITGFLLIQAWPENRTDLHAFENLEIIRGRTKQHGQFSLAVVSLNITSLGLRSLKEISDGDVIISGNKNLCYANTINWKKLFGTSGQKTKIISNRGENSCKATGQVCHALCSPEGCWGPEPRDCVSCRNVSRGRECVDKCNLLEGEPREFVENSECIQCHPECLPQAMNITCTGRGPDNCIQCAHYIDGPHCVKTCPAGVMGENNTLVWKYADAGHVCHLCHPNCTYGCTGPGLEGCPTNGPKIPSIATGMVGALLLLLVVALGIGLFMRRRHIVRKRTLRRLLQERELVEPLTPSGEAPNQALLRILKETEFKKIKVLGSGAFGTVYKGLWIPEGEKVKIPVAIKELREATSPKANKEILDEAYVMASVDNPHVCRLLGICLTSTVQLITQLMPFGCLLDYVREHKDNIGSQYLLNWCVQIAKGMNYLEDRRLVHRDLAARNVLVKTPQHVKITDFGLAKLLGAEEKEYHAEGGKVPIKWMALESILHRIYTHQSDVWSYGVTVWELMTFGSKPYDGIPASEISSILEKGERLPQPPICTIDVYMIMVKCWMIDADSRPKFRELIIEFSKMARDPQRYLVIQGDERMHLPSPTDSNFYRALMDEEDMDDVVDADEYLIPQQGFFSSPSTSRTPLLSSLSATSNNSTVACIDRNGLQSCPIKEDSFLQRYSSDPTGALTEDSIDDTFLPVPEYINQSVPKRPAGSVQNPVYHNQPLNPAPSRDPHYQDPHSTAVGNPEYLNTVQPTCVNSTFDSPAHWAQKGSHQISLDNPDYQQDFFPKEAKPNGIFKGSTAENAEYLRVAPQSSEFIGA
The target in test [4] is EGFR (human) (UniProt P00533).
Sequence of EGFR (human) (P00533 whole entry, looked up): as above
Test [5] has as its target EGFR (human) (UniProt P00533). This is another data set of the same source.
Test [6] has as its target EGFR (UniProt P00533).
In test [7] the target is EGFR (UniProt P00533). This is another data set of the same source.
In test [8] the target is CDK2 (human) (UniProt P24941). Briefly: Enzyme Assay.
The target of test [9] is CDK2 (human) (UniProt P24941). As to the kind of experiment: Enzyme Assay. This is another data set of the same source.
Test [10] has as its target EGFR (human) (UniProt P00533). This is another data set of the same source.
The target of test [11] is EGFR (human) (UniProt P00533). The settings on record: A431.
Test [12] concerns the target EGFR (human) (UniProt P00533). This is another data set of the same source.
Test [13] deals with EGFR (UniProt P00533). The source holds these as a separate data set.
Test [14] deals with MAPK14 (UniProt Q16539). As to the kind of experiment: Inhibition of MAPK14 Kinase Activity.
Sequence of MAPK14 (Q16539 whole entry, looked up): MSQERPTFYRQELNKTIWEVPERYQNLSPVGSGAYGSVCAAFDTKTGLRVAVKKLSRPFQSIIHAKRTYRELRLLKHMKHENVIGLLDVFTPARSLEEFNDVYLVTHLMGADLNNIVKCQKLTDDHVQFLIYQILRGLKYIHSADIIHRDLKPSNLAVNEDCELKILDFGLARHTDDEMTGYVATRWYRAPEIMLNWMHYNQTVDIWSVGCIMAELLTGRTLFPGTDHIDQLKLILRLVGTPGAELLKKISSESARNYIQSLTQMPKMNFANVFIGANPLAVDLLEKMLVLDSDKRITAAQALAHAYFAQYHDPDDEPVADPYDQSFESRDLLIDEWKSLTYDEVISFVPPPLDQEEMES
For test [15], the target named is CDK2 (human) (UniProt P24941). Briefly: Cell-Based Assay. The settings on record: mcf-7.
Test [16] deals with EGFR (UniProt P00533). The source holds these as a separate data set.
Test [17] concerns the target EGFR (human) (UniProt P00533). The settings on record: concentration not given here.
Test [18] deals with EGFR (human) (UniProt P00533). This is another data set of the same source.
In another test the target is ROCK2 (human) (UniProt O75116). Briefly: Inhibition of ROCK2 Kinase Activity. The settings on record: concentration not given here.
Test [19] deals with EGFR (human) (UniProt P00533). This is another data set of the same source.
Test [20] concerns the target EGFR (human) (UniProt P00533). The settings on record: kb.
The target in a further test is ROCK2 (bovine) (UniProt Q28021). Briefly: Inhibition of RHO-Associated Coiled-Coil-Containing Protein Kinase 2 Activity.
The target in test [21] is EGFR (human) (UniProt P00533). The settings on record: a431.
The target in the next test is PIK3CA (UniProt P42336). Briefly: Inhibition of PIK3CA Kinase Activity.
Sequence of PIK3CA (P42336 whole entry, looked up): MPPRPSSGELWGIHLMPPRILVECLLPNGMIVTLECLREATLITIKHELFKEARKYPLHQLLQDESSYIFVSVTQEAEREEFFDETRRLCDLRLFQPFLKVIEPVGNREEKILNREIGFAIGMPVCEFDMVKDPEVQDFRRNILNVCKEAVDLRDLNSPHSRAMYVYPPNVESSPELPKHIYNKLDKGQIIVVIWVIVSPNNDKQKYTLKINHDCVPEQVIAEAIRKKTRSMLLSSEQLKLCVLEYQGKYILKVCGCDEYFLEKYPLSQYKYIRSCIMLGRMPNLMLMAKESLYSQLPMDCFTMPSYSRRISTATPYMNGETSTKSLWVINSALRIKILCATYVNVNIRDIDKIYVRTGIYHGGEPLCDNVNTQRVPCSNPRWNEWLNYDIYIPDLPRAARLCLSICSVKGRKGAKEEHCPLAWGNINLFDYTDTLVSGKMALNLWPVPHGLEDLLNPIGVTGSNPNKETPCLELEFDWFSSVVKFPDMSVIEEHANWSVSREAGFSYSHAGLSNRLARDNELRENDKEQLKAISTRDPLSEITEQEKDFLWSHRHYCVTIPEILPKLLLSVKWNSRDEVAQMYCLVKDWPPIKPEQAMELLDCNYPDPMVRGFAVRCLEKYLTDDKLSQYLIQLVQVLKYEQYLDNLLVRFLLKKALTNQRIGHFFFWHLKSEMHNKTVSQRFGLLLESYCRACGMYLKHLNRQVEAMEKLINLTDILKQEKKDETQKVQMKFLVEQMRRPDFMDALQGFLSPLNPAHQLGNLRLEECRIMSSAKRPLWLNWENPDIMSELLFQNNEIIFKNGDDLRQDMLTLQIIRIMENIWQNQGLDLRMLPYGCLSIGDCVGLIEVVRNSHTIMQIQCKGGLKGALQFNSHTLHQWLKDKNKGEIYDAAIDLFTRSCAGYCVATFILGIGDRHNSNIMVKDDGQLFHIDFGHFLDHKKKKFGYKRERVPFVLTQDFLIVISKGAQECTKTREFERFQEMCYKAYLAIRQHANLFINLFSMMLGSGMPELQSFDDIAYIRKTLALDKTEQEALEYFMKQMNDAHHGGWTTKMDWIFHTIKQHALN
Test [22] deals with EGFR (UniProt P00533). The source holds these as a separate data set.
Test [23] concerns the target MAPK14 (human) (UniProt Q16539). As to the kind of experiment: Inhibition of TNF-alpha Release from LPS Stimulated hPBMCs. The settings on record: pbmc.
For test [24] the target is unchanged. As to the kind of experiment: In vitro Inhibition of LPS-Induced TNF-alpha Release in THP-1 Cells. The settings on record: thp.1 monocytic.
Test [25] concerns the target MAPK14 (UniProt Q16539). As to the kind of experiment: Enzyme Assay.
The test system of test [26] is MAPK14 (Balb/c mice). As to the kind of experiment: Cell-Based Assay. The settings on record: peritoneal macrophage.
Test [27] addresses EGFR (human) (UniProt P00533). The settings on record: A431. This is another data set of the same source.

Sequence of MAPK14 (human) (Q16539 whole entry, looked up): as the sequence (Q16539 whole entry, looked up) above

`CONC(=O)c1ccc(C)c(Nc2nc(N(C)CC(C)(C)C)nc(N3CCCN(C)CC3)n2)c1`: the Ki (as a rule, the dissociation constant of the complex between target and ligand, obtained from inhibition or displacement) at MAPK14 (human) [1] turned out to be 4.2 nM. The ED50 result with MAPK14 (Balb/c mice) [2] is on record as “Between 3 to 10 mg kg-1”. In the case of `CN1CCN(Cc2ccc(Nc3nc4ncc(C#N)c(Nc5ccc(Oc6ccccc6)cc5)c4s3)cc2)CC1`, the inhibition (in general, the relative decrease from the control value, in per cent) on EGFR [3] worked out at 0%. As to `CCN(CC)Cc1ccc(-c2cc3c(N[C@H](C)c4ccccc4)ncnc3[nH]2)cc1`, the half-maximal inhibitory concentration (IC50) (commonly the concentration that gives 50% inhibition) on EGFR (human) [4] was 4 nM.

Regarding `CN1CCN(c2ccc3[nH]c(-c4cc(-c5ccc(NC(=O)Nc6cccc(Cl)c6)cc5)[nH]n4)nc3c2)CC1`, at EGFR (human) [5], the half-inhibitory concentration (IC50) is at least 5000 nM. Consider `O=C(CCCNc1ncc(C(F)(F)F)cc1Cl)NNS(=O)(=O)c1ccc(CNC(=O)c2ccc(Cl)cc2)s1`, for which the 50% inhibitory concentration (IC50) on MAPK14 (human) [1] and against EGFR [6] was over 10000 nM each time. For the compound `COC(=O)c1ccc(NCc2cc(O)ccc2O)cc1`, the half-maximal inhibitory concentration (IC50) against EGFR [7] came out at 250 nM. As to `CCC(C)Cn1c(=O)cc(C)c2cnc(Nc3ccc(N4CCNCC4)cc3)nc21` (configuration not stated), the IC50 against CDK2 (human) [8] and against CDK2 (human) [9] was over 5000 nM each time. For `Nc1nc(Nc2ccc(S(N)(=O)=O)cc2)nn1C(=O)c1c(F)cccc1F`, the concentration for half-maximal inhibition (IC50) on EGFR (human) [10] was over 100000 nM; at EGFR (human) [11], over 100000 nM; against EGFR (human) [12] it was over 10000 nM. `c1ccc(-c2cnc(Nc3ccc(OCCN4CCCC4)cc3)s2)cc1` displayed an IC50 against EGFR [13] of over 10000 nM.

Regarding `COCCNS(=O)(=O)c1ccc(Nc2nccc(-c3cnc4cccnn34)n2)cc1`, the half-maximal inhibitory concentration (IC50) on MAPK14 [14] is over 10000 nM; against CDK2 (human) [15], 390 nM; against EGFR [16], over 10000 nM. `N#Cc1cnc2sc(C(=O)Nc3ccc(NCCCN4CCOCC4)cc3)c3c2c1N(c1c(Cl)ccc2c1OCO2)C(=O)N3`: the inhibition at EGFR (human) [17] amounted to 11%. Compound `CN(C)CC(=O)N1CCC[C@@H]1COc1cccc2ncnc(Nc3ccc(OCc4cncs4)c(Cl)c3)c12` showed an IC50 against EGFR (human) [18] of 260 nM. As for `CN(C(=O)C1CCCCC1)c1ccc2c(c1)nc(NC(=O)c1cccs1)n2CCC(N)=O`, the inhibition against CDK2 (human) [8] (concentration not given here) is 7%; against ROCK2 (human), -1%. Moreover, the IC50 at EGFR (human) [19] is over 6000 nM. At EGFR (human) [20], `COc1cc(OC2CCN(C)CC2)c2c(Nc3ccc(F)c(Cl)c3)ncnc2c1` showed an IC50 of 87 nM.

The compound `CC(C)c1ccc(CN2CCCC(Nc3cccc4cnccc34)C2)cc1` (configuration not stated) yielded a 50% inhibitory concentration (IC50) against ROCK2 (bovine) of 530 nM. Consider `O=C1NC(=O)N(CCc2ccccc2)/C1=C/c1ccc(O)cc1`, for which, at EGFR (human) [21], the half-inhibitory concentration (IC50) came out at 27000 nM.

`COc1ccc(-c2cc(=O)cc(N3CCOCC3)o2)cc1` had a 50% inhibitory concentration (IC50) against PIK3CA of over 50000 nM.

For the compound `CNc1ncc(-c2ccc(C(=O)N[C@H](CN)Cc3ccc(Cl)cc3Cl)s2)cn1`, at EGFR [22], the IC50 is over 10000 nM. As to `Cc1ccc(S(=O)(=O)Nc2ccc3c(c2)CNC(=O)N3c2c(Cl)cccc2Cl)cc1`, the concentration for half-maximal inhibition (IC50) at MAPK14 (human) [23] is over 10000 nM. Take `O=C(Nc1ccc2[nH]cc(CCc3ccncc3)c2c1)c1cc(F)cc(N2CCOCC2)c1`: the IC50 on MAPK14 (human) [24] stood at 530 nM. Consider `OCCC#Cc1nc(-c2ccc(F)cc2)c(-c2ccncc2)n1CCCc1ccccc1`, for which the 50% inhibitory concentration (IC50) against MAPK14 [25] is 16.1 nM; in the test on MAPK14 (Balb/c mice) [26], 19.2 nM. `CCc1cc2cccc(C#CCCc3ccccc3)c2cc1CC` gave a concentration for half-maximal inhibition (IC50) at EGFR (human) [27] of 14 nM.
